Assay results reported in a melting point compilation (Tetko et al.; mined from patent text by program, amines drawn as free bases though some values may be those of a salt).

Work on O=c1[nH]cnc2cc(C(c3ccccc3)n3ccnc3)ccc12 (stereo not drawn) yielded a melting point of 205 °C. Work on COc1cccc(-c2nc(N)nc(Nc3cccc(Br)c3)n2)c1 yielded a melting point of 142 °C. With CC(NC(Nc1cc(C(F)(F)F)cc(C(F)(F)F)c1)=C(C#N)S(C)(=O)=O)C(C)(C)C (stereo not drawn) the melting point was 181 to 182 °C. Work on CC1=C(c2ccccc2)C(c2ccccc2Cl)C([N+](=O)[O-])=C(C)N1 (stereo not drawn) yielded a melting point of 232 °C. With CC(C)(C)c1cc(-n2nc3ccc(Cl)cc3n2)c(O)c(C(C)(C)c2ccc(Cl)cc2)c1 the melting point was 130 to 131 °C. In the case of O=C(O)c1cc(=O)c2cc(C(F)(F)F)ccc2[nH]1, the melting point is reported as 287 to 289 °C. OCc1ccc2oc(-c3cccs3)nc2c1 showed a melting point of 158 to 159 °C. Work on O=C(c1ccc(Cl)cc1)c1cccc(NC(=O)c2ccn3c2CSC3c2cccnc2)c1 (stereo not drawn) yielded a melting point of 176 °C. CC(=CC(=O)c1ccc(C(F)(F)F)cc1[N+](=O)[O-])N(C)C gave a melting point of 122 °C. With COC(=O)c1ccccc1SC1=C(O)CC(CCC(C)C)(c2ccccc2)OC1=O (stereo not drawn) the melting point was 115 to 116 °C. In the case of CCOC(=O)Cc1sc(C(C)(C)c2c(Cl)cc(-n3ncc(=O)[nH]c3=O)cc2Cl)nc1-c1ccccc1, the melting point is reported as 148 °C. CCn1nc(C(C)(C)C)c2c1C(=O)NCC(c1ccc(O)cc1)=N2 gave a melting point of 264 °C. With O=Cc1ccc(C(F)(F)F)cc1Oc1ccccc1 the melting point was 57 to 59 °C. Compound N#CCCCCc1cccc2cncn12 has a melting point of 72 to 75 °C. Compound NC(=O)c1cn(C(CO)CCc2ccccc2)cn1 (stereo not drawn) has a melting point of 127 to 130 °C. Cc1c(CC(=O)O)c2cc(OCc3csc(-c4ccccc4)n3)ccc2n1Cc1ccc(Cl)cc1 gave a melting point of 150 to 151 °C. Compound CCOC(=O)C1=C(C)NC(c2nccn2Cc2ccccc2)=NC1c1ccc(F)cc1 (stereo not drawn) has a melting point of 162 to 164 °C. Brc1nnnn1Cc1ccccc1 showed a melting point of 54 °C. In the case of CCOC(=O)c1ccc(NC(=O)c2ccc(F)cc2)cc1, the melting point is reported as 172 to 174 °C. Cc1c(C)c2c(c(C)c1O)CCC(C)(COc1ccc(CC(Cl)C(=O)O)cc1)O2 (stereo not drawn) gave a melting point of 148 to 149 °C. In the case of CC(=O)c1cc(N(C)C)ccc1NC(=O)c1ccc(OCc2ccccc2)cc1, the melting point is reported as 139 to 140 °C. Cc1nc2cnccc2n1-c1ccc(COc2ccccc2C(=O)O)cc1 showed a melting point of 217 to 219 °C. In the case of Cc1cc(C)c2nc(N(CC(C)N3CCOCC3)C3CCNCC3)n(Cc3nc(C)ccc3O)c2c1 (stereo not drawn), the melting point is reported as 223 °C. Work on CCC1(CCCCN2CCc3sccc3C2)C(=O)Nc2ccc(Br)cc21 (stereo not drawn) yielded a melting point of 149 to 151 °C. Work on COc1cc(-c2ccc(N)cn2)cc(OC)c1OC yielded a melting point of 154 to 156 °C. Compound COC(=O)c1ccc(Oc2ccc(N3CCN(c4ccncc4)CC3)cc2)nc1 has a melting point of 143 to 144 °C. In the case of Cc1ccc(CC2CCN(CCS(=O)c3ccc4[nH]c(=O)oc4c3)CC2)cc1 (stereo not drawn), the melting point is reported as 177 to 179 °C. Cc1cc(Br)ccc1N=CN(C)SN(C)C=Nc1ccc(Br)cc1C showed a melting point of 127 to 129 °C. Work on N#Cc1nc(-c2c(Cl)cc(C(F)(F)F)cc2Cl)[nH]c1C#N yielded a melting point of 194 to 195 °C. In the case of CCOC(C)=CC(=O)Nc1ccc(Cl)c(Cl)c1, the melting point is reported as 126 °C. COCCCNS(=O)(=O)NC(=O)OCc1ccc(OCCOC)cc1Oc1ncc(C(F)(F)F)cc1Cl showed a melting point of 149 to 150 °C. Work on Cc1ccc2c(c1)C(CCCCN1CCN(c3ccc(Cl)cc3)CC1)C(=O)N2 (stereo not drawn) yielded a melting point of 159 to 161 °C. With O=C(Nc1ccc(C(F)(F)F)cc1)Nc1nc(OCC(F)(F)F)cc(C(F)(F)F)n1 the melting point was 197 to 199 °C. Nc1nc(-c2nn(Cc3ccccc3F)c3ncccc23)nc(N)c1Cc1ccccc1 showed a melting point of 193 °C. Work on COC(=O)c1sc(C#N)cc1[N+](=O)[O-] yielded a melting point of 83 to 85 °C. CNC(=O)c1cc(F)c(Cl)cc1F showed a melting point of 128 °C. Compound O=C(O)C1=C(Sc2ccccc2)CC2CC(=O)C12 (stereo not drawn) has a melting point of 213 to 215 °C. COc1cccc2c1OCC(C#N)=C2 gave a melting point of 105 to 106 °C. Work on COc1cccc2c1C(C)C(=O)N2 (stereo not drawn) yielded a melting point of 128 to 130 °C. Work on CN(C)C(=O)Nc1ccc(S(=O)(=O)CCc2ccccc2)c(Cl)c1 yielded a melting point of 136 to 138 °C. For OCC(Cl)=C(Cl)CC(O)(Cn1cncn1)C1(Cl)CC1 (stereo not drawn), the melting point was 130 to 132 °C. CC(C)C(c1ccc2[nH]c(=O)c(C(=O)O)nc2c1)n1ccnc1 (stereo not drawn) gave a melting point of 238 °C. CCOc1ccc(C2=NN(c3ccc(S(=O)(=O)O)cc3)C(=O)[C@H]3CC=CC[C@@H]23)cc1OCC (relative stereo) showed a melting point of 65 to 69 °C. Compound Cc1ccc2c(c1)C(C(=O)Nc1c(C)cccc1C)c1ccccc1CO2 (stereo not drawn) has a melting point of 162 to 163 °C. For CNc1nc(C(C)c2ccc(-c3ccccc3)c(F)c2)co1 (stereo not drawn), the melting point was 134 to 135 °C. Cc1nnc2nc(-c3ccccc3F)cnn12 gave a melting point of 227 to 229 °C. With O=C1NC(=S)SC1=Cc1ccc2c(c1)N(OCc1ccc(C(F)(F)F)cc1)C(=O)CO2 the melting point was > 300 °C. Nc1nc2c(s1)CCN(CC1=Cc3ccccc3CC1)CC2 gave a melting point of 158 to 160 °C. In the case of CC(C)(Sc1cc(C(C)(C)C)c(O)c(C(C)(C)C)c1)Sc1cc(C(C)(C)C)c(OCC[C@H](O)CO)c(C(C)(C)C)c1, the melting point is reported as 110 to 112 °C. For COc1ccc(S(C)(=O)=O)cc1N, the melting point was 174 to 178 °C. Work on CCSc1ccc2c(c1)C(Cl)Cc1ccc(F)cc1S2 (stereo not drawn) yielded a melting point of 99 °C. Work on C=CCNC(=O)C(C#N)C(=O)C1CC1 (stereo not drawn) yielded a melting point of 72 to 73.5 °C. Work on CNc1nc(NC)c2ncn(COC(CO)CO)c2n1 yielded a melting point of 198 °C. Cc1ccc(S(=O)(=O)OC[C@H]2CC[C@H](C#N)CC2)cc1 gave a melting point of 84 to 85 °C. CONS(=O)(=O)c1ccc(C(=O)C=Cc2cc(-c3cc4ccccc4n3C)c(OC)cc2OC)cc1 showed a melting point of 214 to 216 °C. Cc1cccc(-c2[nH]c(C(C)C)nc2-c2cccc(-c3ccncc3)c2)n1 showed a melting point of 84 to 86 °C. Compound COCC1CCCN1Cc1ccc(-c2cc3ncnc(Nc4ccc5[nH]ccc5c4)c3s2)cc1 (stereo not drawn) has a melting point of 161 to 177 °C. Compound O=c1nc(NCCCOc2cccc(CN3CCCCC3)c2)c2ccccc2[nH]1 has a melting point of 219 to 221 °C. For Cc1ccccc1C=CCC(C(=O)C=Cc1ccc(Cl)cc1)c1ccccc1 (stereo not drawn), the melting point was 60 to 76 °C. Compound CCCCOc1c(CNC(=O)OC(C)(C)C)n(CC(C)C)c(=O)c2ccc(C(=O)OC)cc12 has a melting point of 148 to 149 °C. In the case of Nc1sc2c(c1C(=O)c1ccccc1)CCSC2, the melting point is reported as 92 to 95 °C. For CS(=O)(=O)c1ccc(Cn2c3c(c4cc(F)cc(F)c42)CCCC(CC(=O)O)C3)cc1 (stereo not drawn), the melting point was 200 to 202 °C. In the case of CCCCOCCOc1ccc(-c2ccc(N3CCCC3)c(C(C)=O)c2)cc1, the melting point is reported as 87 to 88 °C. Compound CCOC(=O)NN=Cc1nc(-c2ccccc2)[nH]c1C has a melting point of 209 to 211 °C. COC(=O)c1ccc(C#Cc2cc(C#Cc3ccc(C(=O)OC)cc3)cc(C#Cc3ccc(C(=O)OC)cc3)c2)cc1 showed a melting point of 177 °C. CC(=O)N1CCc2c(sc(C)c2CCN2CCC(c3noc4ccc(F)cc34)CC2)C1 gave a melting point of 167 to 172 °C. Cc1cccc(-n2nc(C)c3c(Cl)c4ccccc4nc32)n1 gave a melting point of 154 °C. CCSc1cn(C)cc(-c2ccc(Cl)c(C(F)(F)F)c2)c1=O gave a melting point of 115 to 116 °C. In the case of CC(C)(C)OC(=O)N(Cc1csc2ccccc12)S(N)(=O)=O, the melting point is reported as 103 °C. In the case of O=C1CN(Cc2ccccc2)c2cc(-c3cccc(Cl)c3)ccc2N1, the melting point is reported as 182 to 185 °C. Work on Nc1ccc(OCc2nc3cc(F)ccc3s2)cc1 yielded a melting point of 125 to 128 °C. Work on ON=C1Cc2ccccc2C(=NO)c2ccccc21 yielded a melting point of 220 to 221 °C. With CC(C)(C)c1cc(CCc2ccccc2NC(=O)N2CCN(c3ccccc3)CC2)cc(C(C)(C)C)c1O the melting point was 155 to 156 °C. For COc1cc(Nc2nc(O)c3c(n2)C(c2ccccc2)CN(C)C3)ccc1-n1cnc(C)c1 (stereo not drawn), the melting point was 152 to 155 °C. With CC(C)(C)c1cc(C(=O)OCCC(=O)Oc2ccc(Cl)c(N)c2)cc(C(C)(C)C)c1O the melting point was 122 to 124 °C. Cc1oc(-c2ccccc2)nc1COc1cccc(CCCC2OC(=O)NC2=O)c1 (stereo not drawn) showed a melting point of 134 to 135 °C. CN(C)S(=O)(=O)c1ccc(Cl)c(-c2csc(=Nc3ccc(O)cc3)n2C)c1 showed a melting point of 221 to 224 °C. With CN(CCc1ccc(Nc2ncc3c(n2)-c2ccccc2C(c2ccc(Cl)c(Cl)c2)C3)cc1)C1CCCCC1 (stereo not drawn) the melting point was 130 to 131 °C. Work on COc1ccc(-n2c(=O)n(OCc3ccccc3)c(=O)c3cc(F)c(N4CCCC4)nc32)cc1 yielded a melting point of 186 to 188 °C. COc1cn(-c2cccc(-c3cccnc3)c2F)nc(-c2ccnn2-c2ccccc2)c1=O gave a melting point of 147 to 153 °C. CCN1C(=O)C(C)(C)C(=O)N(C)c2cc(CN(CCn3ccc4oc(C)cc4c3=O)Cc3cccc4c3OCO4)ccc21 showed a melting point of 136 to 138 °C. With CC(C)C[C@H](N)[C@@H](O)CCSCCc1ccccc1 the melting point was 95 to 96 °C. CC1Oc2ccc(O)cc2C=C1C=O (stereo not drawn) gave a melting point of 107 to 109 °C. Compound O=c1cc(Oc2c(Cl)cccc2Cl)c2cc(OC(F)F)ccc2o1 has a melting point of 145 to 148 °C. For CCOC(=O)c1nc2scc(CNC(=O)c3ccc(C(=O)OC)cc3)c2c(=O)[nH]1, the melting point was 236 °C. COCCc1ccc(OCC(O)CNC2CCc3ccccc3C2)cc1 (stereo not drawn) showed a melting point of 95 to 97 °C. With COc1cc(CN2CCN(C(=O)c3ccc4c(c3)C(=O)c3ccccc3-4)CC2)cc(OC)c1OC the melting point was 166 to 168 °C. Compound N#CCCn1nnc2cc3c(cc2c1=O)OC1CCCN1C3=O (stereo not drawn) has a melting point of 184 to 186 °C. In the case of COc1ccc(-c2cc(-c3nc(C)cs3)c(=O)n(C)c2-c2cnccn2)cc1, the melting point is reported as 168 to 170 °C. CCOC(=O)c1cnc2c(cnn2CC)c1NN=C(C)CC#N gave a melting point of 190 to 191 °C. For C#CCNC(=O)NC1CCC(=O)c2sccc21 (stereo not drawn), the melting point was 170 to 183 °C. In the case of Oc1ncc(-c2cccc(F)c2)cn1, the melting point is reported as 259 to 261 °C. In the case of Cc1ccc2c(c1)CC(=O)N2, the melting point is reported as 168 °C. CCOc1nsc(NC(=O)Oc2ccccc2)c1C#N gave a melting point of 252 to 253 °C. NS(=O)(=O)c1cnc(-c2cn(-c3nc(-c4ccc(Cl)cc4)cc(C(F)(F)F)n3)cn2)s1 showed a melting point of 263 °C. With CCNC(=O)Nc1ccc2[nH]cc(C(=O)O)c(=O)c2c1 the melting point was > 320 °C. Compound Cc1c(C)c2c(c(C)c1OCc1ccncc1)C(c1ccc(C(C)C)cc1)C1(CCN(C)CC1)O2 (stereo not drawn) has a melting point of 96 to 98 °C. With COc1cc(OC)c2c(=O)[nH]c(-c3ccc(N4CCC(=O)CC4)cc3)nc2n1 the melting point was > 350 °C.
